Measurements taken from patent publication US20250115615A1, “Solid Forms of 3-(5-Fluorobenzofuran-3-yl)-4-(5-methyl-5H-[1,3]dioxolo[4,5-f]indol-7-yl)pyrrole-2,5-dione” (Actuate Therapeutics Inc., priority 2017, published 2025).
Values after ≈ are worked out from the molar mass of the structure shown.

What was measured:
Assay type in all cases: physicochemical
[1] = Solubility study, 1 hour (Form II added to Form I-saturated filtrates); settings: for solubility at 24 h / solubility at 1 h: thermodynamic from solid; for solubility at 24 h: Form I suspension shaken 24 hours, room temperature; for Crystal form of remaining solids (XRPD): 1 hour; for solubility at 1 h: excess Form II added to Form I-saturated filtrate, shaken 1 hour
Procedure: Step 1: A sufficient amount of Form I was added to 1 mL solvent (EtOH, Labrasol, Benzyl Benzoate, Benzyl Alcohol, PEG400: Tween80: EtOH (75:8:17) and PEG300:BzOH: Water (65:10:25)) to make a suspension. The samples were shaken at 2000 rpm in a shaker at room temperature for 24 hours.
Step 2: The vials were visually examined to ensure saturation. 1 mL of suspension was filtered at 24 hours through a 0.45 μm nylon micro-filtration membrane into another clean clear glass vial. The filtrate was analyzed by HPLC.
Step 3: Excess Form II was added to the 6 residual filtrates from Step 2 to make a suspension, respectively. The samples were shaken at 2000 rpm in a shaker for 1 hour. The suspensions were filtered after 1 hour through a 0.45 μm nylon micro-filtration membrane into another clean glass vial. The filtrate was analyzed by HPLC and the remaining solids were analyzed using XRPD.

[2] = Solubility in sesame oil (visual estimate); settings: for visual result: 24 hours, room temperature; for Estimated solubility: sesame oil, stirred 24 hours at room temperature, visual examination
Procedure: The solubility of 9-ING-41 in sesame oil cannot be measured by HPLC. The solubility was estimated by adding weighed portions of Form I (or Form II) into sesame oil. The samples were stirred for 24 hours at room temperature and the vials were visually examined to ensure dissolution.

[3] = Solubility study, 24 hour (HPLC of filtrate, XRPD of remaining solids); settings: for solubility at 24 h: thermodynamic from solid
Procedure: 9-ING-41, either Form I or Form II, was added to 1 mL of each of 10 different solvents in a vial to make a suspension. The samples were shaken at 2000 rpm in a shaker at room temperature for 24 hours. Mixtures were visually examined to ensure saturation. After 24 hours, 1 mL of suspension was filtered through a 0.45 um nylon micro-filtration membrane into another clear glass vial, respectively. The filtrate was analyzed by HPLC and the remaining solids were analyzed using XRPD.

[4] = Mechanical and pressure effects on crystal form (XRPD)
Procedure: 10.0 mg of Form II was weighed into mortar and ground for 5 min. The remaining solid was collected and analyzed by XRPD. […] 4.50 mg of Form II was compressed into tablet. The tablet was then ground into powder and analyzed by XRPD.

[5] = organic solvent or mixture, PEG400:Tween80:EtOH (75:8:17)

With `Cn1cc(C2=C(c3coc4ccc(F)cc34)C(=O)NC2=O)c2cc3c(cc21)OCO3` [Form I] the solubility at 24 h ([1]; aqueous with cosolvent or surfactant or cyclodextrin, PEG300:BzOH:Water (65:10:25)) was 4.96 mg/mL (≈ 12.3 mM), the solubility at 24 h ([1]; oil or lipid, Labrasol) was 61.4 mg/mL (≈ 152 mM) and the solubility at 24 h ([1]; organic solvent or mixture, Benzyl Alcohol) was 22.3 mg/mL (≈ 55.2 mM). The solubility at 24 h ([1]; organic solvent or mixture, Benzyl Benzoate) was 48.3 mg/mL (≈ 119 mM), the solubility at 24 h ([1]; organic solvent or mixture, EtOH) was 1.26 mg/mL (≈ 3.11 mM) and the solubility at 24 h [1, 5] was 73.4 mg/mL (≈ 182 mM). The visual result ([2]; 1.00 mg in 3464.12 mg sesame oil) was “Incomplete”, the visual result ([2]; 1.00 mg in 5997.92 mg sesame oil) was “dissolution” and the Estimated solubility [2] was 0.167 to 0.289 µg/mg. It also gave a solubility at 24 h ([3]; EtOH, organic solvent or mixture, room temperature) of 1.27 mg/mL (≈ 3.15 mM), a solubility at 24 h ([3]; Labrasol, oil or lipid, room temperature) of 60.5 mg/mL (≈ 150 mM) and a solubility at 24 h ([3]; PEG300:BzOH:Water (65:10:25), aqueous with cosolvent or surfactant or cyclodextrin, PEG300:BzOH:Water (65:10:25), room temperature) of 5.09 mg/mL (≈ 12.6 mM). The solubility at 24 h ([3]; PEG400, organic solvent or mixture, PEG400, room temperature) was 96.5 mg/mL (≈ 239 mM), the solubility at 24 h ([3]; PEG400:Tween80:EtOH (75:8:17), organic solvent or mixture, PEG400:Tween80:EtOH (75:8:17), room temperature) was 72.8 mg/mL (≈ 180 mM) and the Solubility ([3]; Water, room temperature) was “Not detected”. For the same molecule, the “Crystal form of remaining solids (XRPD)” value ([3]; all experiments with Form I as starting material) was “remained Form I”, the solubility at 24 h ([3]; benzyl alcohol, organic solvent or mixture, room temperature) was 24 mg/mL (≈ 59.5 mM) and the solubility at 24 h ([3]; benzyl benzoate, organic solvent or mixture, room temperature) was 53 mg/mL (≈ 131 mM). For the same molecule, the solubility at 24 h ([3]; dimethyl acetamide, organic solvent or mixture, room temperature) was greater than 100 mg/mL.
For `Cn1cc(C2=C(c3coc4ccc(F)cc34)C(=O)NC2=O)c2cc3c(cc21)OCO3` [Form II, 3-(5-fluorobenzofuran-3-yl)-4-(5-methyl-5H-[1,3]dioxolo[4,5-f]indol-7-yl) pyrrole-2,5-dione], the “Crystal form after compression (XRPD)” value ([4]; 4.50 mg compressed into tablet, then ground into powder) was “no effect on the crystalline form”, the “Crystal form after grinding (XRPD)” value ([4]; 10.0 mg ground in mortar for 5 min) was “remained Form II” and the “Crystal form of remaining solids (XRPD)” value ([1]; EtOH and PEG300:BzOH:Water (65:10:25)) was “did not change”. For the same molecule, the “Crystal form of remaining solids (XRPD)” value ([1]; Labrasol, Benzyl Benzoate, Benzyl Alcohol, PEG400:Tween80:EtOH (75:8:17)) was “rapidly converts to Form I”, the solubility at 1 h ([1]; filtrate saturated with Form I, aqueous with cosolvent or surfactant or cyclodextrin, PEG300:BzOH:Water (65:10:25)) was 10.2 mg/mL (≈ 25.3 mM) and the solubility at 1 h ([1]; filtrate saturated with Form I, oil or lipid, Labrasol) was 87 mg/mL (≈ 215 mM). It also gave a solubility at 1 h ([1]; filtrate saturated with Form I, organic solvent or mixture, Benzyl Alcohol) of 39.9 mg/mL (≈ 98.6 mM), a solubility at 1 h ([1]; filtrate saturated with Form I, organic solvent or mixture, Benzyl Benzoate) of 71.8 mg/mL (≈ 178 mM) and a solubility at 1 h ([1]; filtrate saturated with Form I, organic solvent or mixture, EtOH) of 2.55 mg/mL (≈ 6.3 mM). The solubility at 1 h [1, 5] was 106 mg/mL (≈ 262 mM), the visual result ([2]; 0.90 mg in 1214.50 mg sesame oil) was “dissolution” and the visual result ([2]; 3.18 mg in 2638.01 mg sesame oil) was “Incomplete”. It also gave an Estimated solubility [2] of 0.741 to 1.21 µg/mg, a Solubility ([3]; Benzyl Alcohol, room temperature) of 30.553 mg/mL (≈ 75.6 mM) and a Solubility ([3]; Benzyl Benzoate, room temperature) of 73.265 mg/mL (≈ 181 mM). It also gave a Solubility ([3]; Dimethyl Acetamide, room temperature) greater than 100 mg/mL, a Solubility ([3]; EtOH, room temperature) of 0.903 mg/mL (≈ 2.23 mM) and a Solubility ([3]; Labrasol, room temperature) of 68.455 mg/mL (≈ 169 mM). For the same molecule, the Solubility ([3]; PEG300:BzOH:Water (65:10:25), room temperature) was 9.410 mg/mL (≈ 23.3 mM), the Solubility ([3]; PEG400, room temperature) was greater than 100 mg/mL and the Solubility ([3]; PEG400:Tween80:EtOH (75:8:17), room temperature) was 90.418 mg/mL (≈ 224 mM). For the same molecule, the Solubility ([3]; Water, room temperature) was “Not detected”, the “Crystal form of remaining solids (XRPD)” value ([3]; ethanol experiment) was “the remaining solids were a solvate” and the “Crystal form of remaining solids (XRPD)” value ([3]; the other experiments (not water, sesame oil, ethanol)) was “the solids appeared to be Form I”. For the same molecule, the “Crystal form of remaining solids (XRPD)” value ([3]; water and sesame oil experiments) was “the remaining solids were Form II”.
